Results on 25 compounds are retold here after US11498903B2 (BRISTOL-MYERS SQUIBB COMPANY, priority 2017, dated 2022).

Read-outs that look alike come from different tables or passages of the source. Where only a bound is given, the exact number is not on record here.

This assay has as its target T1, human APJ receptor (Homo sapiens, UniProt P35414).
T1 construct: expressed in transfected cells
T1 sequence (P35414 1-380): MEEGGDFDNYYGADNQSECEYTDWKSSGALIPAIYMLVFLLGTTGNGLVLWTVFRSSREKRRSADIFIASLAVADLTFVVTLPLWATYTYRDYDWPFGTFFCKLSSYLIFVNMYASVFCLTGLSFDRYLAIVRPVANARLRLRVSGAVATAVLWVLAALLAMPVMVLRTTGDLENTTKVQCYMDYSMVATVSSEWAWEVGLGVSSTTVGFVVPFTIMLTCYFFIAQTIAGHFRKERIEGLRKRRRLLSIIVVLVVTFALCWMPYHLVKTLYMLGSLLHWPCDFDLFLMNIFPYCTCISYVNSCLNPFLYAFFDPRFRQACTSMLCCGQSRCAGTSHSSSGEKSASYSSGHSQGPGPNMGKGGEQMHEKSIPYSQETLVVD
The assay can be described thus: Intracellular cAMP accumulation assay (APJ hcAMP, HTRF). It is filed as cell-based. An outline of the steps: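 Inhibition of 2 μM forskolin-driven cAMP ([…] present) measured by HTRF in 5,000 HEK293 cells/well stably expressing human APJ, 30 min, room temperature. EC50 came from a variable-slope sigmoidal fit; Ymax was relative to (Pyr1)apelin-13 set at 100%.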
(In general: Cyclic AMP is a second messenger, typically raised through Gs and lowered through Gi signalling.)

The mark [1] stands for this setting: Table 1, HEK293 cells stably expressing human APJ receptor, inhibition of forskolin-mediated cAMP production, read-out: APJ hcAMP EC50.
[2] abbreviates: human APJ, cAMP, potency range class, read-out: APJ cAMP Human EC50.
[3] abbreviates: Table 3, HEK293 cells stably expressing human APJ receptor, read-out: APJ cAMP Human EC50.
The mark [4] stands for this setting: Table 2, HEK293 cells stably expressing human APJ receptor, read-out: APJ cAMP Human EC50.

For the compound `O=C(NC(c1ccccc1)C1CC1)c1ccc(-c2cc(Cl)ccc2-c2nc3ccccc3[nH]2)c(C(=O)O)c1` (single isomer, unassigned) [Example 211, 2′-(1H-1,3-benzodiazol-2-yl)-5′-chloro-4-{[cyclopropyl(phenyl)methyl]carbamoyl}-[1,1′-biphenyl]-2-carboxylic acid], the EC50 (as a rule, the concentration that produces a half-maximal response) under setting [1] was less than 0.01 µM and the EC50 under setting [2] was less than 0.01 µM.

For the compound `CCCC(NC(=O)c1ccc(-c2c(Cl)cccc2-c2nc3ccccc3[nH]2)c(C(=O)O)c1)c1ccncc1` (single isomer, unassigned) [Example 192], the EC50 by setting is: under setting [1], 0.01 to 0.1 µM; under setting [2], 0.01 to 0.1 µM.

As to `COc1cc2nc(-c3cccc(Cl)c3-c3ccc(C(=O)N[C@H](c4ccc(F)cc4)C4CC4)cc3C(=O)O)[nH]c2cc1F` [Example 232, (S)-2′-chloro-4-{[cyclopropyl(4-fluorophenyl)methyl]carbamoyl}-6′-(6-fluoro-5-methoxy-1H-1,3-benzodiazol-2-yl)-[1,1′-biphenyl]-2-carboxylic acid], the EC50 by setting is: under setting [1], less than 0.01 µM; under setting [2], less than 0.01 µM.

On to `COc1cc2[nH]c(-c3cccc(Cl)c3-c3ccc(C(=O)NC(C)C)cc3C(=O)O)nc2cc1F` [Example 109, (S)-2′-chloro-6′-(5-fluoro-6-methoxy-1H-1,3-benzodiazol-2-yl)-4-[(propan-2-yl)carbamoyl]-[1,1′-biphenyl]-2-carboxylic acid], for which the EC50 reads like this: under setting [1], 0.01 to 0.1 µM; under setting [3], 0.01 to 0.1 µM.

For the compound `CCC[C@H](NC(=O)c1ccc(-c2c(Cl)cccc2-c2nc3cc(Cl)c(F)cc3[nH]2)c(C(=O)O)c1)C1CCCCCC1` [Example 202, (S)-2′-chloro-6′-(5-chloro-6-fluoro-1H-1,3-benzodiazol-2-yl)-4-[(1-cycloheptylbutyl)carbamoyl]-[1,1′-biphenyl]-2-carboxylic acid], the EC50 is less than 0.01 µM under setting [1] and less than 0.01 µM under setting [2].

Consider `COC[C@@H](NC(=O)c1ccc(-c2c(Cl)cccc2-c2nc3cc(OC)c(F)cc3[nH]2)c(C(=O)O)c1)c1ccccc1` (atropisomer, axis not shown) [Example 154, (S)-2′-chloro-6′-(6-fluoro-5-methoxy-1H-1,3-benzodiazol-2-yl)-4-{[(1S)-2-methoxy-1-phenylethyl]carbamoyl}-[1,1′-biphenyl]-2-carboxylic acid], for which the EC50 under setting [3] was less than 0.01 µM.

Turning to `CCC[C@@H](NC(=O)c1ccc(-c2cc(Cl)ccc2-c2nc3cc(OC(F)(F)F)ccc3[nH]2)c(C(=O)O)c1)c1ccccc1` [Example 22, 5′-chloro-4-{[(1R)-1-phenylbutyl]carbamoyl}-2′-[5-(trifluoromethoxy)-1H-1,3-benzodiazol-2-yl]-[1,1′-biphenyl]-2-carboxylic acid], the EC50 fell in the range of 0.01 to 0.1 µM under setting [1] and 0.01 to 0.1 µM under setting [4].

Take `CCCC(NC(=O)c1ccc(-c2c(Cl)cccc2-c2nc3cc(OC)c(F)cc3[nH]2)c(C(=O)O)c1)c1ccccc1` [Example 84, (S)-2′-chloro-6′-(6-fluoro-5-methoxy-1H-1,3-benzodiazol-2-yl)-4-{[(1R)-1-phenylbutyl]carbamoyl}-[1,1′-biphenyl]-2-carboxylic acid]: the EC50 under setting [3] is less than 0.01 µM.

As for `CCCC(NC(=O)c1ccc(-c2c(Cl)cccc2-c2nc3ccccc3[nH]2)c(C(=O)O)c1)c1ccccc1Cl` (single isomer, unassigned) [Example 169], the EC50 is less than 0.01 µM under setting [1] and less than 0.01 µM under setting [2].

Consider `CCC[C@@H](NC(=O)c1ccc(-c2cc(C)ccc2-c2nc3cc(OC)ccc3[nH]2)c(C(=O)O)c1)c1ccccc1` [Example 35, 2′-(5-methoxy-1H-1,3-benzodiazol-2-yl)-5′-methyl-4-{[(1R)-1-phenylbutyl]carbamoyl}-[1,1′-biphenyl]-2-carboxylic acid], for which the EC50 reads like this: under setting [1], less than 0.01 µM; under setting [4], less than 0.01 µM.

As for `CCC[C@@H](NC(=O)c1ccc(-c2c(Cl)cccc2-c2nc3cc(O)ccc3[nH]2)c(C(=O)OC)c1)c1ccccc1` (atropisomer, axis not shown) [Example 128, (S)-methyl 2′-chloro-6′-(5-hydroxy-1H-1,3-benzodiazol-2-yl)-4-{[(1R)-1-phenylbutyl]carbamoyl}-[1,1′-biphenyl]-2-carboxylate], under setting [3], the EC50 was 0.01 to 0.1 µM.

As to `O=C(N[C@H](c1ccc(Cl)cc1)C1CC1)c1ccc(-c2c(Cl)cccc2-c2nc3cc(F)c(Cl)cc3[nH]2)c(C(=O)O)c1` (single isomer, unassigned) [Example 240], the EC50 is less than 0.01 µM under setting [1] and less than 0.01 µM under setting [2].

With `CCCC(NC(=O)c1ccc(-c2cc(Cl)ccc2-c2nc3ccccc3[nH]2)c(C(=O)O)c1)c1ccc(F)cc1` (single isomer, unassigned) [Example 215, 2′-(1H-1,3-benzodiazol-2-yl)-5′-chloro-4-{[1-(4-fluorophenyl)butyl]carbamoyl}-[1,1′-biphenyl]-2-carboxylic acid], the 50% effective concentration (EC50) lay within 0.101 to 0.5 µM under setting [1] and 0.101 to 0.5 µM under setting [2].

For the compound `CCC[C@@H](NC(=O)c1ccc(-c2c(Cl)cccc2-c2nc3cc(OC)c(F)cc3[nH]2)c(-c2n[nH]c(=O)o2)c1)c1ccccc1` [Example 130, 2′-chloro-6′-(6-fluoro-5-methoxy-1H-1,3-benzodiazol-2-yl)-2-(5-oxo-4,5-dihydro-1,3,4-oxadiazol-2-yl)-N-[(1R)-1-phenylbutyl]-[1,1′-biphenyl]-4-carboxamide], the EC50 under setting [3] was less than 0.01 µM.

Take `COC[C@@H](NC(=O)c1ccc(-c2cc(Cl)ccc2-c2nc3cc(C(C)(C)C)ccc3[nH]2)c(C(=O)O)c1)c1ccccc1` [Example 80, 2′-(5-tert-butyl-1H-1,3-benzodiazol-2-yl)-5′-chloro-4-{[(1S)-2-methoxy-1-phenylethyl]carbamoyl}-[1,1′-biphenyl]-2-carboxylic acid]: the EC50 was less than 0.01 µM under setting [1] and less than 0.01 µM under setting [4].

Take `O=C(NC(C1CCCCC1)C1CC1)c1ccc(-c2c(Cl)cccc2-c2nc3ccccc3[nH]2)c(C(=O)O)c1` (single isomer, unassigned) [Example 227]: the EC50 under setting [1] was less than 0.01 µM and the EC50 under setting [2] was less than 0.01 µM.

For `CCC[C@@H](NC(=O)c1ccc(-c2cc(Cl)ccc2-c2nc3cc(O)ccc3[nH]2)c(C(=O)O)c1)c1ccccc1` [Example 3, (R)-5′-Chloro-2′-(5-hydroxy-1H-benzo[d]imidazol-2-yl)-4-((1-phenylbutyl)carbamoyl)-[1,1′-biphenyl]-2-carboxylic acid], the EC50 by setting is: under setting [1], less than 0.01 µM; under setting [4], less than 0.01 µM.

With `CCC[C@@H](NC(=O)c1ccc(-c2cc(Cl)ccc2-c2nc3ccccc3[nH]2)c(C(=O)O)c1)c1ccccc1` [Example 2, (R)-2′-(1H-Benzo[d]imidazol-2-yl)-5′-chloro-4-((1-phenylbutyl)carbamoyl)-[1,1′-biphenyl]-2-carboxylic acid], the EC50 under setting [1] was less than 0.01 µM and the EC50 under setting [4] is less than 0.01 µM.

On to `COc1cc2[nH]c(-c3cccc(Cl)c3-c3ccc(C(=O)N4CCC(Cc5ccccc5)CC4)cc3C(=O)O)nc2cc1F` [Example 126, (S)-4-(4-benzylpiperidine-1-carbonyl)-2′-chloro-6′-(5-fluoro-6-methoxy-1H-1,3-benzodiazol-2-yl)-[1,1′-biphenyl]-2-carboxylic acid], for which, under setting [3], the EC50 fell in the range of 0.101 to 0.5 µM.

For `CCC[C@@H](NC(=O)c1ccc(-c2c(Cl)cccc2-c2nc3cc(O)ccc3[nH]2)c(C(=O)O)c1)c1ccccc1` (atropisomer, axis not shown) [Example 135, (S)-2′-chloro-6′-(5-hydroxy-1H-1,3-benzodiazol-2-yl)-4-{[(1R)-1-phenylbutyl]carbamoyl}-[1,1′-biphenyl]-2-carboxylic acid], the EC50 under setting [3] lay within 0.01 to 0.1 µM.

Consider `COc1cc2nc(-c3cccc(Cl)c3-c3ccc(C(=O)N[C@H](c4ccc(Cl)cc4)C4CC4)cc3C(=O)O)[nH]c2cc1F` (single isomer, unassigned) [Example 237], for which the EC50 was less than 0.01 µM under setting [1] and less than 0.01 µM under setting [2].

As to `CCC[C@H](NC(=O)c1ccc(-c2c(Cl)cccc2-c2nc3ccccc3[nH]2)c(C(=O)O)c1)c1ccc(Cl)cc1C(F)(F)F` [Example 181, (S)-2′-(1H-1,3-benzodiazol-2-yl)-6′-chloro-4-({1-[4-chloro-2-(trifluoromethyl)phenyl]butyl}carbamoyl)-[1,1′-biphenyl]-2-carboxylic acid], the EC50 reads like this: under setting [1], less than 0.01 µM; under setting [2], less than 0.01 µM.

On to `CCCC(NC(=O)c1ccc(-c2c(Cl)cccc2-c2ncc(-c3c(F)ccc(F)c3F)[nH]2)c(C(=O)O)c1)c1ccccc1` [Example 100, (S)-2′-chloro-4-{[(1R)-1-phenylbutyl]carbamoyl}-6′-[5-(2,3,6-trifluorophenyl)-1H-imidazol-2-yl]-[1,1′-biphenyl]-2-carboxylic acid], for which the EC50 under setting [3] is less than 0.01 µM.

Take `CCC[C@@H](NC(=O)c1ccc(-c2c(F)cccc2-c2nc3ccccc3[nH]2)c(C(=O)O)c1)c1ccccc1` [Example 140, 2′-(1H-1,3-benzodiazol-2-yl)-6′-fluoro-4-{[(1R)-1-phenylbutyl]carbamoyl}-[1,1′-biphenyl]-2-carboxylic acid]: the EC50 under setting [3] was less than 0.01 µM.

In the case of `CCC[C@@H](NC(=O)c1ccc(-c2cc(Cl)ccc2-c2ncc(-c3ccccc3)[nH]2)c(C(=O)O)c1)c1ccccc1` [Example 4, (R)-5′-Chloro-2′-(4-phenyl-1H-imidazol-2-yl)-4-((1-phenylbutyl)carbamoyl)-[1,1′-biphenyl]-2-carboxylic acid], the EC50 is, setting by setting: under setting [1], less than 0.01 µM; under setting [4], less than 0.01 µM.
